Laboratory results published in publication PMC3071021 (Bioorganic & medicinal chemistry letters, 2011).

Experiments:
[1] = test system: T6-17 (HER2/neu expressing cells); experiment: Standard MTT assay, T6-17 cells; assay type: cell-based; settings: listed as CD4.M3
Jurkat cells = experiment: Standard MTT assay, Jurkat cells; assay type: cell-based; settings: listed as CD4.M3

[Cys^3-Cys^12]-HAbuFCYIGEVEDQCY-OH (disulfide) [CD4, reference compound]
% inhibition of cell growth [1]: unaffected | % inhibition of cell growth (Jurkat cells): unaffected
